Assay results reported in patent publication US20130053385A1, “METHOD OF COMBATING AND CONTROLLING PESTS” (SYNGENTA LIMITED, priority 2009, published 2013).

Tested on: Tetranychus urticae (Two-Spotted Spider Mite)
Assay: Activity against Tetranychus urticae, mixed population, feeding/residual contact activity, preventive (bean leaf discs, Example B4)
Assay type: in vivo
Conditions: foliar, 192 h, 400 ppm, sprayed bean leaf discs, 8 days, mixed-age mites, read-out: activity (egg, larval and adult mortality)
From the text: Activity Against Tetranychus urticae (Two-Spotted Spider Mite)
(mixed population, feeding/residual contact activity, preventive)
Bean leaf discs on agar in 24-well microtiter plates are sprayed with test solutions. After drying, the leaf discs are infested with mite populations of mixed ages. 8 days later, discs are checked for egg mortality, larval mortality, and adult mortality.

SMILES | mortality at 400 ppm [%]
CCc1cc(C)cc(C)c1C1C(=O)CC(CC2CCOCC2)C1=O (stereo not shown) [Compound T50] | > 80
CCc1cc(C)cc(C)c1C1C(=O)CC(CCC2CCOCC2)C1=O (stereo not shown) [Compound T58] | > 80
Cc1cc(C)c(C2C(=O)CC(CC3CCN(C(=O)C(C)C)C3)C2=O)c(C)c1 (stereo not shown) [Compound T142] | > 80
Cc1cc(C)c(C2C(=O)CC(CC3CCN(C(=O)C(F)(F)F)C3)C2=O)c(C)c1 (stereo not shown) [Compound T162] | > 80
COC(=O)N1CCC(CC2CC(=O)C(c3c(C)cc(C)cc3C)C2=O)C1 (stereo not shown) [Compound T43] | > 80
Cc1cc(C)c(C2=C(OC(=O)C(C)(C)C)CC(CC3COCCO3)C2=O)c(C)c1 (stereo not shown) [Compound P49] | > 80
Cc1cc(-c2ccc(OC(F)(F)F)cc2)cc(C)c1C1C(=O)C/C(=C\C2CCOCC2)C1=O (stereo not shown) [Compound T134] | > 80
Cc1cc(C)c(C2=C(OC(=O)C(C)(C)C)CC(CC3CCN(C(=O)C(C)(C)C)C3)C2=O)c(C)c1 (stereo not shown) [Compound P59] | > 80
CCC1CCC(CC2CC(=O)C(c3c(C)cc(C)cc3C)C2=O)O1 (stereo not shown) [Compound T44] | > 80
Cc1cc(-c2ccccc2F)cc(C)c1C1C(=O)CC(CC2CCOCC2)C1=O (stereo not shown) [Compound T139] | > 80
Cc1cc(-c2ccc(Cl)cc2F)cc(C)c1C1C(=O)C/C(=C\C2CCOC2)C1=O (stereo not shown) [Compound T135] | > 80
Cc1cc(C)c(C2C(=O)CC(CC3COCCO3)C2=O)c(C)c1 (stereo not shown) [Compound T40] | > 80
CCC(=O)OC1=C(c2c(C)cc(C)cc2C)C(=O)C(CC2CCN(C(=O)CC)CC2)C1 (stereo not shown) [Compound P65] | > 80
Cc1cc(F)cc(C)c1C1C(=O)CC(CC2CCOCC2)C1=O (stereo not shown) [Compound T170] | > 80
Cc1cc(C)c(C2=C(OS(=O)(=O)C3CC3)CC(CC3CCOC3)C2=O)c(C)c1 (stereo not shown) [Compound P28] | > 80
Cc1ccc(C)c(C2C(=O)CC(CC3CCOCC3)C2=O)c1 (stereo not shown) [Compound T164] | > 80

SMILES | mortality at 400 ppm [%]
Cc1cc(C)c(C2C(=O)CC(C)(CC3CCOC3)C2=O)c(C)c1 (stereo not shown) [Compound T30] | > 80
Cc1cc(C)c(C2=C(OC(=O)C(C)(C)C)CC(CCC3CCOCC3)C2=O)c(C)c1 (stereo not shown) [Compound P34] | > 80
Cc1cc(C)c(C2C(=O)CC(CC3CCN(C(=O)c4ccccc4)C3)C2=O)c(C)c1 (stereo not shown) [Compound T41] | > 80
Cc1cc(C)c(C2C(=O)CC(CC3OCCO3)C2=O)c(C)c1 (stereo not shown) [Compound T130] | > 80
Cc1cc(C)c(C2=C(OC(=O)C(C)C)CC(CC3CCN(C(=O)C(C)C)C3)C2=O)c(C)c1 (stereo not shown) [Compound P58] | > 80
Cc1cc(-c2ccccc2F)cc(C)c1C1C(=O)CC(CC2CCOC2)C1=O (stereo not shown) [Compound T140] | > 80
CC(=O)N1CCC(CC2CC(=O)C(c3c(C)cc(C)cc3C)C2=O)C1 (stereo not shown) [Compound T35] | > 80
Cc1cc(C)c(C2C(=O)CC(CC3CCN(C(=O)C(F)(F)C(F)F)CC3)C2=O)c(C)c1 (stereo not shown) [Compound T161] | > 80
CC(=O)N1CCCCC1CC1CC(=O)C(c2c(C)cc(C)cc2C)C1=O (stereo not shown) [Compound T48] | > 80
Cc1cc(C)c(C2C(=O)CC(C(O)C3CCSCC3)C2=O)c(C)c1 (stereo not shown) [Compound T6] | > 80
Cc1cc(C)c(C2C(=O)CC(CC3CCN(S(=O)(=O)C(F)(F)F)CC3)C2=O)c(C)c1 (stereo not shown) [Compound T112] | > 80
Cc1cc(C)c(C2C(=O)CC(CC3CCN(c4ccc(Cl)cc4)CC3)C2=O)c(C)c1 (stereo not shown) [Compound T60] | > 80
Cc1cc(-c2ccccc2)cc(C)c1C1C(=O)C/C(=C\C2CCOCC2)C1=O (stereo not shown) [Compound T66] | > 80
Cc1cc(C)c(C2C(=O)C/C(=C\C3CCN(C(=O)c4ccccc4)C3)C2=O)c(C)c1 (stereo not shown) [Compound T34] | > 80
Cc1cc(C)c(C2=C(OC(=O)c3ccco3)CC(CC3CCN(C(=O)c4ccco4)C3)C2=O)c(C)c1 (stereo not shown) [Compound P62] | > 80
